Test results reported in patent US20170298056A1, “SMALL MOLECULE INHIBITORS OF HIV-1 ENTRY AND METHODS OF USE THEREOF” (Dana-Farber Cancer Institute, Inc., priority 2014, published 2017).
Read-outs that look alike come from different tables or passages of the source.

What was measured:
Format in all cases: cell-based
HIV-1HXBc2 = test: Viral infection assay, CXCR4-tropic virus, Cf2Th-CD4/CXCR4 cells; conditions: HIV-1HXBc2, Cf2Th cells expressing CD4 and CXCR4
[1] = system: all CCR5-using HIV-1 isolates; test: Viral infection assay, panel of CCR5-using HIV-1 isolates; conditions: Cf2Th-CD4/CCR5 cells
Experimental: (§1) Production of recombinant HIV-1 expressing luciferase. […] After 48 hours, the supernatant was collected, buffered with 50 mM Hepes pH 7.4 (final concentration) and centrifuged for 5 minutes at 750×g and 4° C. The virus-containing supernatant was used directly or frozen at −80° C.
Viral infection assay. Each test compound was serially diluted in DMSO in a 96-well B&W isoplate (PerkinElmer, Boston, Mass.) using an HP D300 Digital Dispenser, to a final volume of 450 nl. DMSO was used as a control. Viruses pseudotyped with a specific Env were added to each well and incubated briefly at room temperature. Cf2Th-CD4/CCR5 cells were detached with StemPro Accutase Cell Dissociation Reagent (Invitrogen, cat #A11105-01), washed once, and 5000 cells were added to each well. […] Following incubation, the medium was aspirated and cells were lysed with 30 μl of Passive Lysis Buffer (Promega, cat #E1941). The activity of the firefly luciferase, which was used as a reporter protein in the system, was measured with a Centro LB 960 luminometer (Berthold Technologies, Oak Ridge, Tenn.). One hundred microliters of assay buffer (15 mM MgSO4, 15 mM KH2PO4/K2HPO4 pH 7.8, 1 mM ATP and 1 mM DTT) was injected to each well, followed by a 50 μl injection of 1 mM Dluciferin potassium salt (BD Pharmingen, San Jose, Calif.); luminescence was measured for 2 sec. […]

HIV-1YU2 = test: Viral infection assay, YU2 Env (wild type and mutants); conditions: for Fold change: mutant/wild-type IC50
Excerpt: HIV-1 Env mutants. Mutations were introduced into the plasmid expressing the fulllength HIV-1YU2 or HIV-1JR-FL Envs using the QuikChange II site-directed mutagenesis protocol or the QuikChange multi site-directed mutagenesis kit (Stratagene). The presence of the desired mutations was confirmed by DNA sequencing. All HIV-1 Env residues are numbered based on alignment with the HXBc2 prototypic sequence, according to current convention.
as §1
Viral infection assay. Each test compound was serially diluted in DMSO in a 96-well B&W isoplate (PerkinElmer, Boston, Mass.) using an HP D300 Digital Dispenser, to a final volume of 450 nl. DMSO was used as a control. Viruses pseudotyped with a specific Env were added to each well and incubated briefly at room temperature. Cf2Th-CD4/CCR5 cells were detached with StemPro Accutase Cell Dissociation Reagent (Invitrogen, cat #A11105-01), washed once, and 5000 cells were added to each well. […] Following incubation, the medium was aspirated and cells were lysed with 30 μl of Passive Lysis Buffer (Promega, cat #E1941). The activity of the firefly luciferase, which was used as a reporter protein in the system, was measured with a Centro LB 960 luminometer (Berthold Technologies, Oak Ridge, Tenn.). One hundred microliters of assay buffer (15 mM MgSO4, 15 mM KH2PO4/K2HPO4 pH 7.8, 1 mM ATP and 1 mM DTT) was injected to each well, followed by a 50 μl injection of 1 mM Dluciferin potassium salt (BD Pharmingen, San Jose, Calif.); luminescence was measured for 2 sec. Infection of PBMC was done as above, but 20,000-40,000 cells/well and viruses concentrated by ultracentrifugation were used. After four hours of incubation with viruses, the cells were centrifuged at 200×g for 6 minutes at 4° C., resuspended in 100 μl RPMI-PBMC medium and incubated at 37° C. for an additional 36-40 hours (total 40-44 hours). Supernatant was removed after centrifugation at 400×g for 5 minutes and cells were processed to detect luciferase activity, as described above.

## O=C(N/N=C/c1ccc(O)cc1)Nc1cccc2nsnc12 [Compound 18A]
HIV-1HXBc2
  IC50: ~25 µM
[1]; read-out: IC50 values of the majority (75%) of CCR5-using HIV-1 isolates
  IC50: < 6 µM
[1]; read-out: average IC50 for all CCR5-using HIV-1 isolates
  IC50: 5.7 µM
HIV-1YU2; YU2 Env D113A
  IC50: 6 ± 1.4 µM
  Fold change: 0.7
HIV-1YU2; YU2 Env D589L
  IC50: 12.1 ± 1.5 µM
  Fold change: 1.4
HIV-1YU2; YU2 Env E370A
  IC50: 2.3 ± 0.8 µM
  Fold change: 0.3
HIV-1YU2; YU2 Env E429K
  IC50: 9 ± 1.4 µM
  Fold change: 1.1
HIV-1YU2; YU2 Env H66A
  IC50: 8 ± 0.9 µM
  Fold change: 1
HIV-1YU2; YU2 Env H66N
  IC50: 4.6 ± 0.5 µM
  Fold change: 0.5
HIV-1YU2; YU2 Env I108A
  IC50: 6.1 ± 0.7 µM
  Fold change: 0.7
HIV-1YU2; YU2 Env I109W
  IC50: 2.9 ± 0.4 µM
  Fold change: 0.3
HIV-1YU2; YU2 Env I285A
  IC50: 6.3 ± 1.5 µM
  Fold change: 0.7
HIV-1YU2; YU2 Env I309A
  IC50: 4.2 ± 1.3 µM
  Fold change: 0.5
HIV-1YU2; YU2 Env I371A
  IC50: 6.5 ± 0.9 µM
  Fold change: 0.8
HIV-1YU2; YU2 Env I420C
  IC50: 2.1 ± 0.4 µM
  Fold change: 0.2
HIV-1YU2; YU2 Env I420S
  IC50: 4.8 ± 0.8 µM
  Fold change: 0.6
HIV-1YU2; YU2 Env I423R
  IC50: 2.4 ± 0.4 µM
  Fold change: 0.3
HIV-1YU2; YU2 Env K117W
  IC50: 6.5 ± 1.1 µM
  Fold change: 0.8
HIV-1YU2; YU2 Env L111A
  IC50: 10.4 ± 1.6 µM
  Fold change: 1.2
HIV-1YU2; YU2 Env L260A
  IC50: 3.4 ± 1.5 µM
  Fold change: 0.4
HIV-1YU2; YU2 Env L261A
  IC50: 4.9 ± 1 µM
  Fold change: 0.6
HIV-1YU2; YU2 Env L317A
  IC50: 10.2 ± 1.4 µM
  Fold change: 1.2
HIV-1YU2; YU2 Env M475A (associated with resistance to BMS-806)
  IC50: 10.2 ± 2.6 µM
HIV-1YU2; YU2 Env M475A
  Fold change: 1.2
HIV-1YU2; YU2 Env N377A
  IC50: 3.3 ± 0.6 µM
  Fold change: 0.4
HIV-1YU2; YU2 Env P212A
  IC50: 10.2 ± 1.5 µM
  Fold change: 1.2
HIV-1YU2; YU2 Env Q114N
  IC50: 14.8 ± 2.1 µM
  Fold change: 1.7
HIV-1YU2; YU2 Env S110A
  IC50: 7.3 ± 1.6 µM
  Fold change: 0.9
HIV-1YU2; YU2 Env S110N
  IC50: 5.9 ± 1.8 µM
  Fold change: 0.7
HIV-1YU2; YU2 Env S375A
  IC50: 10 ± 1.3 µM
  Fold change: 1.2
HIV-1YU2; YU2 Env S375W (associated with resistance to BMS-806)
  IC50: 14.6 ± 2.8 µM
HIV-1YU2; YU2 Env S375W
  Fold change: 1.7
HIV-1YU2; YU2 Env T71A
  IC50: 7.1 ± 1.4 µM
  Fold change: 0.8
HIV-1YU2; YU2 Env T257A
  IC50: 13.2 ± 1.1 µM
  Fold change: 1.5
HIV-1YU2; YU2 Env T257S
  IC50: 6.9 ± 0.8 µM
  Fold change: 0.8
HIV-1YU2; YU2 Env V255A
  IC50: 14 ± 1.2 µM
  Fold change: 1.6
HIV-1YU2; YU2 Env V255G
  IC50: 7.9 ± 1.7 µM
  Fold change: 0.9
HIV-1YU2; YU2 Env V255I
  IC50: 5.4 ± 1.3 µM
  Fold change: 0.6
HIV-1YU2; YU2 Env V255W
  IC50: 3.6 ± 1.3 µM
  Fold change: 0.4
HIV-1YU2; YU2 Env V430A
  IC50: 5.9 ± 0.6 µM
  Fold change: 0.7
HIV-1YU2; YU2 Env V430S
  IC50: 2.9 ± 0.3 µM
  Fold change: 0.3
HIV-1YU2; YU2 Env W69L
  IC50: 3.5 ± 0.5 µM
  Fold change: 0.4
HIV-1YU2; YU2 Env W69L + S375W
  Fold change: 1.7
HIV-1YU2; YU2 Env W479A
  IC50: 1.3 ± 0.2 µM
  Fold change: 0.2
HIV-1YU2; YU2 Env W596M
  IC50: 9.4 ± 1.4 µM
  Fold change: 1.1
HIV-1YU2; YU2 Env double mutant W69L + S375W
  IC50: 15 ± 2.5 µM
HIV-1YU2; YU2 Env wild type
  IC50: 8.6 ± 1.4 µM
  Fold change: 1
